Test system: rat
Assay: concentration in urine after dosing
Settings: dosed: benzo(a)pyrene, 20 mg/kg, iv, male, Sprague-Dawley

Oc1ccc2ccc3c4ccccc4cc4ccc1c2c43 [3-hydroxybenzo(a)pyrene]
Settings | concentration in urine [ng/mL]
4.071 h | 0.145
8.015 h | 0.0241
23.16 h | 5.11
28.88 h | 6.99
35.11 h | 8.63
47.07 h | 6.84
52.93 h | 6.1
59.03 h | 2.19
76.84 h | 0.0482
95.04 h | 0.289

Oc1ccc2ccc3cc4ccccc4c4ccc1c2c34 [1-hydroxybenzo(a)pyrene]
Settings | concentration in urine [ng/mL]
3.699 h | 0.371
7.645 h | 0.0295
10.85 h | 0.0167
22.69 h | 1.58
28.98 h | 3.02
34.9 h | 5.24
46.73 h | 2.31
52.9 h | 2.18
58.94 h | 1.1
77.07 h | 0.514
94.7 h | 0.0397

c1ccc2c(c1)cc1ccc3cccc4ccc2c1c34 [benzo(a)pyrene]
Settings | concentration in urine [ng/mL]
4.13 h | 3.27
7.866 h | 0.98
11.07 h | 0.98
23.06 h | 10.1
29.09 h | 126
35.2 h | 1.96
47.07 h | 0.98
52.8 h | 0.654
58.8 h | 0.654
76.8 h | 0.654
94.93 h | 0.654

Reference: EPA's CvTdb concentration-time database (doi:10.5012/bkcs.2003.24.5.559)
